Columns and labels:
Format in all cases: cell-based, human
CD56^+ cells = assay: CD45/CD56 expression on day 28 after iPSC-HSPC differentiation optimization
Protocol: For iPSC-HSPC differentiation optimization, CD45/CD56 expression on day 28 was measured (FIG. 10). The HSPC cells on day 6 were further differentiated to iNK in the StemPro-34-based differentiation media Table 12) in the presence of IL7, IL15, SCF. Flt3lFlt3l, (IL3 was added for days 6-14 only). […] However, it was not an optimal condition as the single cells production and expansion was lower than in conditions in the presence of Activin A molecule (data not shown). Due to low CD56^+ cells formation on day 28, the HSPC to iNK differentiation conditions was optimized.

CD45^+CD56^+ cells = assay: Effect of CHIR-99021 concentration in NK-MED-005 medium on iNK induction; conditions: 2.5, 3.5 or 4.5 μM in NK-MED-005c, AP2.0, day 20
Protocol: To determine the optimal concentration of CHIR-99021, different concentrations (2.5 μM, 3.5 μM or 4.5 μM) were added to the NK-MED-005c medium (Table 30) to test their effect on iNK induction. Differentiation proceeded according to Protocol 2 (AP2.0) as described in Example 11. Cells were collected and analyzed using flow cytometry to detect CD45^+CD56^+ cells at differentiation day 20.

[1] = tested on: blood lineage markers, CD33; assay: Effect of WNT-C59 in NK-MED-006 medium on iNK induction; conditions: 2 μM in NK-MED-006, AP2.0, day 20 cultures
Protocol: The effect of including WNT-C59 (2 μM) in NK-MED-006 medium during iNK induction using the AP2.0 protocol was examined. […] The addition of WNT-C59 increased proportion of cells expressing non-NK lineage markers.

[2] = tested on: iNK cell induction from HSPC; assay: Design of Experiment (DoE) I and β-mercaptoethanol test, day 6 to day 20; conditions: for direction of effect in DoE I: differentiation and cell number at day 20
Protocol: A design of Experiment (DoE) study was performed to determine the concentrations of zinc sulfate, β-mercaptoethanol, human serum, and glucose that would provide the most differentiation and increased number of cells at differentiation day 20. These factors were selected based on known chemical/biological effects of them in affect general cell proliferation and differentiation. Potential positive/negative involvement of β-mercaptoethanol, zinc ion, human serum, and glucose in NK cell or lymphocyte cell proliferation, killer cell receptor function, and cytotoxicity have been previously reported. There were no known studies conducted on testing optimal range of these factors in NK cell induction from HSPC.
To determine the effects of β-mercaptoethanol on differentiation, CD45+ and CD56+ expression was measured in cells cultured in Stempro34 media, DMEM/F12 media with low zinc, low human serum, and no β-mercaptoethanol (bME), or DMEM/F12 media with low zinc, low human serum, and 50 μM β-mercaptoethanol.
A second DoE experiment (DoE II) was subsequently performed to further optimize the concentrations of zinc, β-mercaptoethanol, human serum albumin, and glucose.

CD45^+/CD56^+ cells = assay: Stage II base media comparison (Stempro34 vs DMEM/F12 and others), Day 21 single cells
Protocol: This Example investigates the use of various alternative base media that can be used for Stage II differentiation. […] The HSPC to iNK differentiation from day 6 further on was done in StemPro-34-based media (Table 12). […] In this Example, the […] until day 6 as described in Example 2 (i.e., steps 1-5). Each media was supplemented with 20 ng/mL IL7, 20 ng/mL IL15, 20 ng/mL SCF, 20 ng/mL Flt3lFlt3l and 5 ng/mL of IL-3 for days 6-14 and 20 ng/mL IL7, 20 ng/mL IL15, 20 ng/mL SCF, 20 ng/mL Flt3lFlt3l for days 14-21 of differentiation.
Day 21 single cells were profiled for CD45^+/CD56^+, CD56^+/NKG2D^+, CD56^+/CD94^+, and CD56^+/CD16^+ expression (FIG. 12). […] The DMEM/F12 2:1 basal media was chosen due to its price and higher availability for scale up production.

Cc1cnc(-c2cnc(NCCNc3ccc(C#N)cn3)nc2-c2ccc(Cl)cc2Cl)[nH]1 [CHIR-99021, 6-[[2-[[4-(2,4-Dichlorophenyl)-5-(5-methyl-1H-imidazol-2-yl)-2-pyrimidinyl]amino]ethyl]amino]-3-pyridinecarbonitrile]
single cells production and expansion (CD56^+ cells; CHIR-99021 alone versus conditions with Activin A, data not shown): lower | CD56^+ percentage, rank among conditions (CD56^+ cells; day 28, StemPro-34-based media, condition #5): highest CD56^+ percentage | amount giving the highest proportion of CD45^+CD56^+ cells (CD45^+CD56^+ cells): moderate amount

Cc1cc(-c2ccc(CC(=O)Nc3ccc(-c4cccnc4)cc3)cc2)ccn1 [WNT-C59]
proportion of cells expressing non-NK lineage markers [1]: increased | proportion of iNK that expressed the myeloid progenitor marker CD33 [1]: altered

O=S(=O)([O-])[O-].[Zn+2] [Zinc sulfate]
direction of effect in DoE I [2]: positive effect

OCCS [β-mercaptoethanol]
effect on iNK cell induction (CD45+, CD56+ expression) ([2]; 50 μM in DMEM/F12 with low zinc, low human serum): negative effect | direction of effect in DoE I [2]: negative effect | CD45^+/CD56^+ cells (CD45^+/CD56^+ cells; StemPro34, bME 55 μM, 1 μM, 0 μM (samples #1, #2, #3), day 21): 60% to 90% | effect on iNK differentiation (CD45^+/CD56^+ cells; StemPro-based media, day 6 to day 21): prevented iNK differentiation
